This is an account of results in patent US12371454B2, “Cyclic peptide compound having Kras inhibitory action” (priority 2019, dated 2025).

Molecules are shown by their SMILES. Starred links: 1 amine or outer side, 2 acyl side, 3 side chain; linkers in the order of their positions; H or OH if unused. Positions of bridges follow the written chain, without caps; N, C: chain ends. Non-standard residues stand in square brackets, D forms with d. Residues, ends and D or L forms follow the SMILES beside them. *: point of attachment. hPhe(3-Cl-4-CF3) = N[C@@H](CCc1ccc(C(F)(F)F)c(Cl)c1)C(=O)O; NMePhe(4-CF3) = CN[C@@H](Cc1ccc(C(F)(F)F)cc1)C(=O)O; X39 = COc1ccc(C[C@@H](C(=O)[*:2])N(C)[*:1])cn1; NMePhe(4-Cl) = CN[C@@H](Cc1ccc(Cl)cc1)C(=O)O; NMePhe(4-Me) = CN[C@@H](Cc1ccc(C)cc1)C(=O)O; NMePhe(2-Cl) = CN[C@@H](Cc1ccccc1Cl)C(=O)O; NMedβ3hAla = C[C@H](CC(=O)[*:2])N(C)[*:1]; Phe(3-Cl) = N[C@@H](Cc1cccc(Cl)c1)C(=O)O; NMeGly(cPent) = CN[C@H](C(=O)O)C1CCCC1; Phe(3-I) = N[C@@H](Cc1cccc(I)c1)C(=O)O; Pro(4,4-F2) = O=C(O)[C@@H]1CC(F)(F)CN1; NMeCha = CN[C@@H](CC1CCCCC1)C(=O)O; NMeChg = CN[C@H](C(=O)O)C1CCCCC1; NMeF = CN[C@@H](Cc1ccccc1)C(=O)O; hPhe = N[C@@H](CCc1ccccc1)C(=O)O; NMeD = CN[C@@H](CC(=O)O)C(=O)O; NMeL = CN[C@@H](CC(C)C)C(=O)O; NMeV = CN[C@H](C(=O)O)C(C)C; d(β3hA) = C[C@@H](N)CC(=O)O; NMeS = CN[C@@H](CO)C(=O)O; NMeA = CN[C@@H](C)C(=O)O; NMeAib = CNC(C)(C)C(=O)O; Piperidide = C1CCN(*)CC1; Pyrrolidide = C1CCN(*)C1; dNMeA = CN[C@H](C)C(=O)O; Ac5c = NC1(C(=O)O)CCCC1; Aze = O=C(O)[C@@H]1CCN1; Sar = CNCC(=O)O

T1 sequence (P01116 1-188 isoform P01116-2 G12D): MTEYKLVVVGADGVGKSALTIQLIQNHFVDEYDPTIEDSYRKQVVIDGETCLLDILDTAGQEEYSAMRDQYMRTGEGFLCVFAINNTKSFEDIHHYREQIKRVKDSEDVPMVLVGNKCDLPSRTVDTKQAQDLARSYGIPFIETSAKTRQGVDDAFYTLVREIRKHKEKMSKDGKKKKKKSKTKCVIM

The experiment concerns the target T1, Kras and SOS1 (biotin-tagged human Kras loaded with GDP, His-tagged human SOS1) (Homo sapiens, UniProt P01116, G12D).
T1 construct: made in house; host or cells: E. coli (stated for Kras only)
Briefly: Protein-protein interaction inhibition between Kras and SOS1 (KrasGl2D-SOS PPI) using AlphaScreen. The format is binding. The note with it: AlphaScreen; biotin-tagged human Kras loaded with GDP, His-tagged human SOS1; read-out: KRAS G12D-SOS PPI IC50. The method in brief: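 AlphaScreen format: Ni donor beads capture His-SOS1, streptavidin acceptor beads capture biotinylated Kras (E. coli-expressed, GDP-loaded post-purification). Excite 680 nm, read 520-620 nm.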
A general note: Alpha assays give light when donor and acceptor beads are brought close together.
Consider `CC[C@H](C)[C@@H]1NC(=O)[C@H](CC(C)C)N(C)C(=O)C[C@@H](C)N(C)C(=O)[C@H](C2CCCC2)N(C)C(=O)C2(CCCC2)NC(=O)[C@@H]2CC(F)(F)CN2C(=O)[C@H](CCc2ccc(C(F)(F)F)c(Cl)c2)NC(=O)CN(C)C(=O)[C@H](Cc2ccc(C(F)(F)F)cc2)N(C)C(=O)CN(C)C(=O)CN(C)C1=O` [Compound 611] (cyclo([Ac5c][NMeGly(cPent)][NMedβ3hAla][NMeL]I[Sar][Sar][NMePhe(4-CF3)][Sar][hPhe(3-Cl-4-CF3)][Pro(4,4-F2)])), for which the IC50 (commonly the point on the concentration scale where inhibition reaches its midpoint) turned out to be 3.3 nM.
As for `CC[C@H](C)[C@@H]1NC(=O)[C@H](C)N(C)C(=O)C[C@@H](C(=O)N2CCCC2)NC(=O)[C@H](C(C)C)N(C)C(=O)[C@H](Cc2ccccc2)N(C)C(=O)[C@H](C)NC(=O)[C@H](Cc2cccc(Cl)c2)NC(=O)CN(C)C(=O)[C@H](Cc2ccc(Cl)cc2)N(C)C(=O)CN(C)C(=O)CN(C)C1=O` [Compound 612] ([NMeA]I[Sar][Sar][NMePhe(4-Cl)][Sar][Phe(3-Cl)]A[NMeF][NMeV]D-Pyrrolidide; lactam N-11), the figure is 120 nM; as for `CC[C@H](C)[C@@H]1NC(=O)[C@H](C)N(C)C(=O)C[C@@H](C(=O)N2CCCC2)NC(=O)[C@H](CC(C)C)N(C)C(=O)[C@H](Cc2ccccc2)N(C)C(=O)[C@H](CC(C)C)NC(=O)[C@H](Cc2ccccc2)NC(=O)CN(C)C(=O)[C@H](Cc2ccc(Cl)cc2)N(C)C(=O)CN(C)C(=O)CN(C)C1=O` [Compound 613] ([NMeA]I[Sar][Sar][NMePhe(4-Cl)][Sar]FL[NMeF][NMeL]D-Pyrrolidide; lactam N-11), 500 nM; as for `CC[C@H](C)[C@@H]1NC(=O)[C@H](CC(C)C)N(C)C(=O)C[C@@H](C(=O)N2CCCCC2)N(C)C(=O)[C@H](C2CCCCC2)N(C)C(=O)C2(CCCC2)NC(=O)[C@H](Cc2ccc(OC)nc2)N(C)C(=O)[C@H](CCc2ccc(C(F)(F)F)c(Cl)c2)NC(=O)CN(C)C(=O)[C@H](CC2CCCCC2)N(C)C(=O)[C@@H]2CCN2C(=O)CN(C)C1=O` [Compound 614] ([NMeL]I[Sar][Aze][NMeCha][Sar][hPhe(3-Cl-4-CF3)][X39][Ac5c][NMeChg][NMeD]-Piperidide; lactam N-11), 24 nM.
Take `CC[C@H](C)[C@@H]1NC(=O)[C@H](CC(C)C)N(C)C(=O)C[C@@H](C(=O)N2CCCCC2)N(C)C(=O)[C@H](CC(C)C)NC(=O)C(C)(C)N(C)C(=O)[C@H](CCc2ccccc2)NC(=O)[C@H](Cc2cccc(I)c2)NC(=O)CN(C)C(=O)[C@H](Cc2ccc(C)cc2)N(C)C(=O)[C@@H]2CCN2C(=O)[C@H](C)N(C)C1=O` [Compound 617] ([NMeL]I[NMeA][Aze][NMePhe(4-Me)][Sar][Phe(3-I)][hPhe][NMeAib]L[NMeD]-Piperidide; lactam N-11): the IC50 was 110 nM.
Next, `CC[C@H](C)[C@@H]1NC(=O)[C@H](CC(C)C)N(C)C(=O)C[C@@H](C(=O)N2CCCCC2)N(C)C(=O)[C@H](CC(C)C)NC(=O)[C@H](Cc2ccccc2)N(C)C(=O)[C@H](C)NC(=O)[C@H](Cc2cccc(I)c2)NC(=O)CN(C)C(=O)[C@H](Cc2ccc(C)cc2)N(C)C(=O)CN(C)C(=O)CN(C)C1=O` [Compound 619] ([NMeL]I[Sar][Sar][NMePhe(4-Me)][Sar][Phe(3-I)]A[NMeF]L[NMeD]-Piperidide; lactam N-11): 19 nM.
As for `CC[C@H](C)[C@@H]1NC(=O)[C@H](C)N(C)C(=O)C[C@@H](C)NC(=O)[C@H](C2CCCC2)N(C)C(=O)C2(CCCC2)NC(=O)[C@@H]2CCCN2C(=O)[C@H](CCc2ccc(C(F)(F)F)c(Cl)c2)NC(=O)[C@@H](C)N(C)C(=O)[C@H](CC(C)C)N(C)C(=O)CN(C)C(=O)CN(C)C1=O` [Compound 621] (cyclo([Ac5c][NMeGly(cPent)][d(β3hA)][NMeA]I[Sar][Sar][NMeL][dNMeA][hPhe(3-Cl-4-CF3)]P)), the figure is 59 nM; as for `CC[C@H](C)[C@@H]1NC(=O)[C@H](CC(C)C)N(C)C(=O)C[C@@H](C(=O)N2CCCCC2)N(C)C(=O)[C@H](C2CCCCC2)N(C)C(=O)C2(CCCC2)NC(=O)[C@@H]2CCCN2C(=O)[C@H](CCc2ccc(C(F)(F)F)c(Cl)c2)NC(=O)CN(C)C(=O)[C@H](COC)N(C)C(=O)CN(C)C(=O)CN(C)C1=O` [Compound 623] ([NMeL]I[Sar][Sar][NMeS](Me)[Sar][hPhe(3-Cl-4-CF3)]P[Ac5c][NMeChg][NMeD]-Piperidide; lactam N-11), 1.8 nM.
In the case of `CC[C@H](C)[C@@H]1NC(=O)[C@H](C)N(C)C(=O)C[C@@H](C(=O)N2CCCC2)N(C)C(=O)[C@H](C(C)C)N(C)C(=O)[C@H](C)NC(=O)[C@H](Cc2ccccc2Cl)N(C)C(=O)[C@H](CCc2ccc(C(F)(F)F)c(Cl)c2)NC(=O)CN(C)C(=O)[C@H](CC2CCCCC2)N(C)C(=O)CN(C)C(=O)CN(C)C1=O` [Compound 624] ([NMeA]I[Sar][Sar][NMeCha][Sar][hPhe(3-Cl-4-CF3)][NMePhe(2-Cl)]A[NMeV][NMeD]-Pyrrolidide; lactam N-11), the IC50 was found to be 160 nM.
